Tests used:
HEK293T cells = experiment: Translation efficiency of different capped luciferase mRNAs; format: cell-based; conditions: for Relative fluorescence intensity: HEK293T, 0.5 μg mRNA per well, 24 hours, proportional to translation efficiency; for Multiple of m6A (relative fluorescence intensity): relative to m6A
Method: • (1) HEK293T cells were cultured in DMEM medium containing 10% FBS and penicillin/streptomycin at 37° C. with 5% CO2. • (2)Cells in the culture dish were digested and counted, then spread in a 96-well plate at 10,000 cells per well, and cultured overnight until the cells adhered to the wall. • (3) When the cell density reached approximately 80%, transfection was performed by adding 0.5 μg of mRNA sample and Lipofectamine MessengerMAX Transfection Reagent (Invitrogen) per well according to the manufacturer's instructions. • (4) After the transfected cells were cultured at 37° C. with 5% CO2 for 24 hours, the growth medium was removed from the cells to be tested, and the cells were rinsed with PBS. After centrifugation to remove PBS, 50 μL of 1× lysis buffer was added. The cells and all liquid were transferred to a microcentrifuge tube and centrifuged. • (5) 20 μL of sample was taken and added to 100 μL of Dual-Lumi™ II Luciferase Assay Reagent pre-equilibrated to room temperature, and mixed appropriately. • (6) The mixture was incubated at room temperature (approximately 25° C.) for 5 minutes to stabilize the luminescence signal. Chemiluminescence was detected using a multifunctional microplate reader with a function for detecting chemiluminescence, and the data were recorded.
The relative fluorescence intensity is proportional to the translation efficiency of mRNA.

DCP2 enzyme = target: T1, DCP2 enzyme (Schizosaccharomyces pombe, UniProt O13828); experiment: Decapping enzyme stability test; format: biochemical; conditions: for Decapping rate (%) of DCP2 enzyme: 50 U mRNA decapping enzyme, 37° C., 45 minutes
T1 construct: purchased New England Biolabs
T1 sequence (O13828 1-243 limits assumed): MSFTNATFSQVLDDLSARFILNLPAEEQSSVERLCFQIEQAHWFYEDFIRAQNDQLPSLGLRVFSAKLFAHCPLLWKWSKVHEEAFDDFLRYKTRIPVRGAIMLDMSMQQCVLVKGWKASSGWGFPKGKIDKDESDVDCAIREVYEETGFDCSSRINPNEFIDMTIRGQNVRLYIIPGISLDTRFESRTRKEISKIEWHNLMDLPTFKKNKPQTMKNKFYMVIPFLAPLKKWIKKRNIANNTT
T1 sequence (Q9P805 1-127 partner): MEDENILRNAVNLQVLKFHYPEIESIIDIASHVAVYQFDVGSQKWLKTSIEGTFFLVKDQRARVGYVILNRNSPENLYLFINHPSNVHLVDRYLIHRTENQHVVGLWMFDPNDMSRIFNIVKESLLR
T1 sequence (Q10108 155-180 partner limits assumed): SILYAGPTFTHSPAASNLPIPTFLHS
Method: […] of RNA purified by polyacrylamide gel electrophoresis (PAGE) was subjected to an enzymatic reaction with 50 U of mRNA decapping enzyme (New England Biolabs) and 1×MDE buffer at 37° C. for 45 minutes. The enzymatic reactants were subjected to PAGE and stained with SYBR Green II (Lonza), followed by observation of the post-electrophoresis gel image on a Typhoon FLA 7000 (GE Healthcare) instrument. The electrophoresis band intensity ratio of RNA capping to RNA decapping was counted using ImageQuant (GE Healthcare) software, and the decapping rate of the decapping enzyme was calculated.

[1] = Characterization of lipid nanoparticles encapsulating Fluc-mRNA prepared from different cap structures; format: physicochemical; conditions: for Particle size: LNP (YK-009/DSPC/cholesterol/DMG-PEG2000) with Fluc-mRNA transcribed using the named cap analog; for PDI: LNP with Fluc-mRNA transcribed using the named cap analog; for EE: encapsulation efficiency of LNP with Fluc-mRNA transcribed using the named cap analog
Method: Cationic lipid YK-009 (Beijing Youcare Kechuang Pharmaceutical Technology Co., Ltd.), DSPC (AVT (Shanghai) Pharmaceutical Technology Co., Ltd.), cholesterol (AVT (Shanghai) Pharmaceutical Technology Co., Ltd.), and DMG-PEG2000 were dissolved in ethanol at a molar ratio of 49:10:39.5:1.5, and the mRNA was diluted in 50 mM citrate buffer (pH=4). The ethanol lipid solution was mixed with the Fluc-mRNA aqueous solution prepared from different cap structures at a volume ratio of 1:3 using a microfluidic device at a flow rate of 10 mL/min to prepare LNPs at a weight ratio of total lipid to mRNA of approximately 15:1.
The resulting liposomes were diluted to 10-fold volume with PBS, and then ultrafiltered with a 300 KDa ultrafiltration tube to remove ethanol. The volume was then fixed to a certain volume with PBS. Finally, the LNPs were filtered through a 0.2 μm sterile filter to obtain an LNP preparation encapsulating Fluc-mRNA using YK-009/DSPC/cholesterol/DMG-PEG2000 (at a molar ratio of 49:10:39.5:1.5).
The particle size and polydispersity index (PDI) were determined by dynamic light scattering using a Malvern laser particle size analyzer. 10 μL of the liposome solution was taken, diluted to 1 mL with RNase-free deionized water, and added to a sample pool. Each sample was measured in triplicate. The measurement conditions were: a scattering angle of 90° and a temperature of 25° C. The encapsulation efficiency of LNPs was determined using the Quant-iT RiboGreen RNA Quantification Kit (Thermo Fisher Scientific, UK) according to the manufacturer's instructions.

BALB/C mice = experiment: In vivo imaging of Fluc-mRNA LNP expression in mice
Method: The LNP preparation containing 5 μg of cap analog-transcribed Fluc-mRNA was intramuscularly injected into female BALB/C mice aged 4 to 6 weeks and weighing 17 to 19 g. At specific time points after administration (6 hours, 12 hours, 24 hours, 48 hours, 96 hours, and 168 hours), the mice were intraperitoneally injected with fluorescence imaging substrate. The mice were then allowed to move freely for 5 minutes, followed by detection of the total radiation intensity of the protein expressed by LNP-carrying mRNA in the mice using an IVIS Spectrum small-animal in vivo imaging system (corresponding to the amount of protein expression).
In the in vivo imaging experiments in mice, the multiple of the total radiation intensity for each group of mice relative to the m6A group is shown in Table 8 (where the total radiation intensity is represented as the given value×10^8 p/s).

[2] = 6 h, 5 μg Fluc-mRNA LNP intramuscular, mice
[3] = 12 h, 5 μg Fluc-mRNA LNP intramuscular, mice
[4] = 24 h, 5 μg Fluc-mRNA LNP intramuscular, mice
[5] = 48 h, 5 μg Fluc-mRNA LNP intramuscular, mice
[6] = 96 h, 5 μg Fluc-mRNA LNP intramuscular, mice
[7] = 168 h, 5 μg Fluc-mRNA LNP intramuscular, mice

Row | Decapping rate (%) of DCP2 enzyme (DCP2 enzyme) [%] | Decrease relative to N-7113 (decapping rate) (DCP2 enzyme) [%] | Particle size [1] [nm] | PDI [1] | EE [1] [%] | SMILES | Relative fluorescence intensity (HEK293T cells) | Multiple of m6A (relative fluorescence intensity) (HEK293T cells) | Multiple of total radiation intensity relative to m6A (BALB/C mice; 6 h) | Total radiation intensity (BALB/C mice; [2]) | Multiple of total radiation intensity relative to m6A (BALB/C mice; 12 h) | Total radiation intensity (BALB/C mice; [3]) | Multiple of total radiation intensity relative to m6A (BALB/C mice; 24 h) | Total radiation intensity (BALB/C mice; [4]) | Multiple of total radiation intensity relative to m6A (BALB/C mice; 48 h) | Total radiation intensity (BALB/C mice; [5]) | Multiple of total radiation intensity relative to m6A (BALB/C mice; 96 h) | Total radiation intensity (BALB/C mice; [6]) | Total radiation intensity (BALB/C mice; [7]) | Total radiation intensity (BALB/C mice; at 12 hours) | Total radiation intensity (BALB/C mice; at 48 hours)
1 | 33.8 | 10.0 | 75.76 | 0.047 | 93.8 | CNc1ncnc2c1ncn2[C@@H]1O[C@H](COP(=O)(O)OP(=O)(O)OP(=O)(O)OC[C@H]2O[C@@H]([n+]3cn(C)c4c(=O)[nH]c(N)nc43)[C@H](O)[C@@H]2O)[C@@H](OP(=O)(O)OC[C@H]2O[C@@H](n3cnc4c(=O)[nH]c(N)nc43)[C@H](O)[C@@H]2O)[C@H]1OC [m6A, reference compound] | 0.38 | 1.0 | 1.0 | 2.35 ×108 p/s | 1.0 | 2.12 ×108 p/s | 1.0 | 0.66 ×108 p/s | 1.0 | 0.52 ×108 p/s | 1.0 | 0.08 ×108 p/s | 0.02 ×108 p/s | 2.12 ×10^8 p/s | 0.52 ×10^8 p/s
2 | 28.3 | 15.5 | 81.34 | 0.035 | 96.3 | CCO[C@@H]1[C@H](OP(=O)(O)OC[C@H]2O[C@@H](n3cnc4c(=O)[nH]c(N)nc43)[C@H](O)[C@@H]2O)[C@@H](COP(=O)(O)OP(=O)(O)OP(=O)(O)OC[C@H]2O[C@@H]([n+]3cn(C)c4c(=O)[nH]c(N)nc43)[C@H](O)[C@@H]2O)O[C@H]1n1cnc2c(N)ncnc21 [CAP-2′O-ethyl, reference compound] | 1.13 | 3.0 | 2.3 | 5.41 ×108 p/s | 2.3 | 4.80 ×108 p/s | 2.6 | 1.73 ×108 p/s | 1.1 | 0.57 ×108 p/s | 2.4 | 0.09 ×108 p/s | 0.02 ×108 p/s | – | –
3 | 43.8 | 0.0 | 87.45 | 0.078 | 96.1 | CO[C@@H]1[C@H](OP(=O)(O)OC[C@H]2O[C@@H](n3cnc4c(=O)[nH]c(N)nc43)[C@H](O)[C@@H]2O)[C@@H](COP(=O)(O)OP(=O)(O)OP(=O)(O)OC[C@H]2O[C@@H]([n+]3cn(C)c4c(=O)[nH]c(N)nc43)[C@H](O)[C@@H]2O)O[C@H]1n1cnc2c(N)ncnc21 [N-7113, reference compound] | 1.00 | 2.6 | 2.2 | 5.10 ×108 p/s | 2.0 | 4.33 ×108 p/s | 2.3 | 1.49 ×108 p/s | 0.9 | 0.49 ×108 p/s | 2.4 | 0.05 ×108 p/s | 0.02 ×108 p/s | 4.33 ×10^8 p/s | 0.49 ×10^8 p/s
4 | 23.3 | 20.5 | 75.35 | 0.058 | 95.1 | COC[C@H]1[C@@H](O)[C@H]([n+]2cn(C)c3c(=O)[nH]c(N)nc32)O[C@@H]1COP(=O)(O)OP(=O)(O)OP(=O)(O)OC[C@H]1O[C@@H](n2cnc3c(N)ncnc32)[C@H](OC)[C@@H]1OP(=O)(O)OC[C@H]1O[C@@H](n2cnc3c(=O)[nH]c(N)nc32)[C@H](O)[C@@H]1O [HN3002, reference compound] | – | 3.0 | – | – | – | – | – | – | – | – | – | – | – | – | –

— US12576099B2, “Ribose-modified cap analog and use thereof” (Beijing Youcare Kechuang Pharmaceutical Technology Co., Ltd., priority 2024, dated 2026)
